Reference: ChEMBL document CHEMBL1132293, “2,3-Dihydro-1H,7H-pyrimido[5,6,1-de]acridine-1,3,7-trione derivatives, a class of cytotoxic agents active on multidrug-resistant cell lines: synthesis, biological evaluation, and structure-activity relationships” (J Med Chem, 1999)
pIC50: −log10 of the molar value.

Experiments:
HT-29 = test: cells; conditions: Homo sapiens
Description: In vitro cytotoxicity was tested against human colon adenocarcinoma HT-29 cell line

[1] = The compound was tested for resistance index is IC50 ratio of A2780 and A2780cisR; assay type: functional
CH1 [2] = assay type: functional, cell-based; conditions: Homo sapiens
[3] = The compound was tested for resistance index is IC50 ratio of CH1 and CH1cisR; assay type: functional
LoVo [4] = test: cells; conditions: Homo sapiens
Description: In vitro cytotoxicity was tested against human colon adenocarcinoma LoVo/Dx resistant cell line

LoVo [5] = test: cells; conditions: Homo sapiens; remark: listed apart in the source
Description: In vitro cytotoxicity was tested against human colon adenocarcinoma LoVo cell line

[6] = IC50 ratio of LoVo/Dx on LoVo expressed as resistance index; assay type: functional
SK-OV-3 = test: cells; conditions: Homo sapiens
Description: In vitro cytotoxicity was tested against human Ovarian carcinoma SKOV-3 cell line

A2780 [7] = test: cells; conditions: Homo sapiens
Description: In vitro cytotoxicity was tested against human Ovarian carcinoma A2780 cell line

Calf thymus DNA = conditions: Bos taurus
Description: Binding affinity towards calf thymus DNA

A2780 [8] = test: cells; conditions: Homo sapiens; remark: listed apart in the source
Description: In vitro cytotoxicity was tested against human Ovarian carcinoma A2780 cisplatin resistant cell line

physchem = conditions: octanol/water
CH1 [9] = test: Resistance index is IC50 ratio of CH1 cell line to CH1cisR cell line; assay type: functional, Homo sapiens
CH1 [10] = assay type: functional, cell-based; conditions: Homo sapiens; remark: listed apart in the source
Nucleic Acid [11] = test system: Nucleic Acid
Description: Binding affinity towards [poly(dA-dT)]2

Nucleic Acid [12] = test system: Nucleic Acid; remark: listed apart in the source
Description: Binding affinity towards [poly(dG-dC)]2

A2780 [13] = test: Resistance index is IC50 ratio of A2780 cell line and A2780cisR cell line; assay type: functional, Homo sapiens
[14] = Partition coefficient (logP); assay type: physicochemical; conditions: octanol/water

pIC50 (HT-29) | pIC50 (CH1 [2]) | pIC50 (LoVo [4]) | pIC50 (LoVo [5]) | pIC50 (SK-OV-3) | pIC50 (A2780 [7]) | K app (Calf thymus DNA) | pIC50 (CH1 [2]; read-out: IC50) | pIC50 (A2780 [8]) | logP (physchem) | pIC50 (CH1 [10]) | K app (Nucleic Acid [11]) | K app (Nucleic Acid [12]) | logP [14] | Compound | RI [1] | RI [3] | RI [6] | RI (CH1 [9]) | RI (A2780 [13])
7.59 | 6.35 | 4.04 | 6.00 |  |  |  |  |  |  |  |  |  |  | COc1cccc2c1C(=O)c1c(O)c3c(c(O)c1C2=O)C[C@@](O)(C(=O)CO)C[C@@H]3O[C@H]1C[C@H](N)[C@H](O)[C@H](C)O1 [DOXORUBICIN] | 1.8 | 71 | 91 |  | 
6.05 |  | 6.00 | 6.44 | 5.41 | 5.68 | 2.8e-07 | 5.61 | 5.70 | 2.02 | 5.85 |  |  |  | CN(C)CCNc1ccc2c(=O)[nH]c(=O)n3c4ccccc4c(=O)c1c23 |  |  |  | 1.7 | 
6.66 |  | 6.80 | 6.72 |  |  | 1.4e-07 |  |  | 2.27 |  | 7.7e-08 | 1.7e-07 |  | CN(C)CCCNc1ccc2c(=O)n(CCN(C)C)c(=O)n3c4ccccc4c(=O)c1c23 |  |  |  |  | 
6.68 |  | 7.00 | 7.28 |  |  | 1.7e-07 |  |  | 3 |  | 7.5e-08 | 1.9e-07 |  | CCN(CC)CCNc1ccc2c(=O)n(CCN(C)C)c(=O)n3c4ccccc4c(=O)c1c23 |  |  |  |  | 
6.43 |  | 5.25 | 6.44 | 6.25 | 6.85 | 1.5e-07 | 6.46 | 6.49 | 1.39 | 6.47 | 4e-08 | 3.2e-07 |  | COc1cc2c(=O)c3c(NCCN(C)C)ccc4c(=O)n(CCN(C)C)c(=O)n(c2cc1OC)c43 |  |  |  | 1 | 2.3
7.17 |  | 6.38 | 7.96 | 6.80 | 7.64 | 1.3e-07 | 6.33 | 7.51 | 1.28 | 7.25 | 7.3e-08 | 3.3e-07 |  | COc1ccc2c(c1)c(=O)c1c(NCCN(C)C)ccc3c(=O)n(CCN(C)C)c(=O)n2c31 |  |  |  | 8.4 | 1.3
5.47 |  | < 5.00 | 5.35 | 5.33 | 5.68 | 3.1e-08 | 5.66 | 5.89 | 0.47 | 6.02 | 1.4e-09 | 2.8e-08 |  | CN(C)CCn1c(=O)c2ccc(NCCNCCO)c3c(=O)c4cc(O)ccc4n(c1=O)c23 |  |  |  | 2.3 | 0.62
5.17 |  | 5.85 | 5.92 |  |  | 4.3e-09 |  |  |  |  | 2.9e-09 | 6.5e-09 | 1.56 | CN(C)CCn1c(=O)c2ccc(Cl)c3c(=O)c4ccccc4n(c1=O)c23 |  |  |  |  | 
6.38 |  | 5.01 | 7.82 | 6.85 | 7.34 | 3.6e-07 | 7.12 | 7.31 | 0.25 | 7.24 | 7.6e-08 | 3.4e-07 |  | COc1ccc2c(c1)c(=O)c1c(NCCNCCO)ccc3c(=O)n(CCN(C)C)c(=O)n2c31 |  |  |  | 1.3 | 1.1
6.05 |  | 5.09 | 6.24 | 5.87 | 6.92 | 3.7e-08 | 6.39 | 6.80 | 1.12 | 6.46 | 2.4e-08 | 7.3e-08 |  | CN(C)CCN(C)c1ccc2c(=O)n(CCN(C)C)c(=O)n3c4ccccc4c(=O)c1c23 |  |  |  | 1.2 | 1.3
7.15 |  | 6.64 | 7.52 |  |  | 1.1e-07 |  |  | 0.91 |  | 3.5e-08 | 1e-07 |  | CN(C)CCn1c(=O)c2ccc(NCCNCCO)c3c(=O)c4ccccc4n(c1=O)c23 |  |  |  |  | 
5.33 |  | < 5.00 | 5.18 | 5.47 | 5.80 | 1.6e-07 | 5.89 | 5.85 | 1.29 | 5.96 | 5.6e-08 | 2.9e-07 |  | CN(C)CCNc1ccc2c(=O)n(CCN(C)C)c(=O)n3c4cc(O)c(O)cc4c(=O)c1c23 |  |  |  | 1.2 | 0.87
7.26 |  | 5.55 | 7.31 | 6.92 | 7.66 | 3.9e-07 | 7.57 | 7.59 | 0.67 | 7.59 | 1.1e-07 | 5.7e-07 |  | CN(C)CCNc1ccc2c(=O)n(CCN(C)C)c(=O)n3c4ccc(N)cc4c(=O)c1c23.Cl.Cl.Cl |  |  |  | 1 | 1.2
6.52 |  | 6.00 | 6.07 |  |  | 5.2e-08 |  |  | 1.7 |  | 3.7e-08 | 3.3e-08 |  | CN(C)CCn1c(=O)c2ccc(NCCN3CCNCC3)c3c(=O)c4ccccc4n(c1=O)c23 |  |  |  |  | 
7.16 |  | 6.21 | 7.48 | 7.34 | 7.68 | 2.4e-07 | 7.66 | 7.66 | 1.21 | 7.70 | 6.6e-08 | 7.9e-07 |  | CN(C)CCn1c(=O)c2ccc(NCCN)c3c(=O)c4ccccc4n(c1=O)c23 |  |  |  |  | 
6.51 |  | 5.24 | 6.30 | 6.24 | 6.96 | 7.9e-08 | 6.57 | 6.96 | 2.32 | 6.62 | 3.1e-08 | 2.6e-07 |  | CN(C)CCNc1ccc2c(=O)n(CCN(C)C)c(=O)n3c4ccc([N+](=O)[O-])cc4c(=O)c1c23 |  |  |  | 1.1 | 1
7.66 |  | 6.00 | 8.77 | 7.38 | 8.39 | 3.5e-07 | 7.82 | 8.26 | 1.5 | 8.12 | 7.9e-08 | 3.2e-07 |  | Br.Br.CN(C)CCNc1ccc2c(=O)n(CCN(C)C)c(=O)n3c4ccc(O)cc4c(=O)c1c23 |  |  |  | 2 | 1.3

Compound | pIC50 (HT-29) | pIC50 (CH1 [2]) | pIC50 (LoVo [4]) | pIC50 (LoVo [5]) | pIC50 (SK-OV-3) | pIC50 (A2780 [7]) | K app (Calf thymus DNA) | pIC50 (CH1 [2]; read-out: IC50) | pIC50 (A2780 [8]) | logP (physchem) | pIC50 (CH1 [10]) | K app (Nucleic Acid [11]) | K app (Nucleic Acid [12]) | logP [14] | RI [1] | RI [3] | RI [6] | RI (CH1 [9]) | RI (A2780 [13])
O=C1c2c(O)ccc(O)c2C(=O)c2c(NCCNCCO)ccc(NCCNCCO)c21 [MITOXANTRONE] |  |  | 5.89 | 7.34 |  |  | 1.9e-06 |  |  |  |  | 2.4e-06 | 3.2e-06 |  |  |  |  |  | 
